The text below walks through data of US12479847B2 (DANA-FARBER CANCER INSTITUTE, INC., priority 2019, dated 2025).

Holding throughout (test): KINOMEscan (ScanMAX) kinase profiling
Assay type in all cases: binding

Assay [1] concerns the target T1, panel of 468 kinases (Homo sapiens, UniProt O95747).
T1 construct: purchased KINOMEscan (ScanMAX) service
The settings on record: OSR1; 1 μM; read-out: % control.

The target of assay [2] is T2, panel of 468 kinases (Homo sapiens, UniProt Q9H2X6).
T2 construct: purchased KINOMEscan (ScanMAX) service
T2 sequence (Q9H2X6 whole entry): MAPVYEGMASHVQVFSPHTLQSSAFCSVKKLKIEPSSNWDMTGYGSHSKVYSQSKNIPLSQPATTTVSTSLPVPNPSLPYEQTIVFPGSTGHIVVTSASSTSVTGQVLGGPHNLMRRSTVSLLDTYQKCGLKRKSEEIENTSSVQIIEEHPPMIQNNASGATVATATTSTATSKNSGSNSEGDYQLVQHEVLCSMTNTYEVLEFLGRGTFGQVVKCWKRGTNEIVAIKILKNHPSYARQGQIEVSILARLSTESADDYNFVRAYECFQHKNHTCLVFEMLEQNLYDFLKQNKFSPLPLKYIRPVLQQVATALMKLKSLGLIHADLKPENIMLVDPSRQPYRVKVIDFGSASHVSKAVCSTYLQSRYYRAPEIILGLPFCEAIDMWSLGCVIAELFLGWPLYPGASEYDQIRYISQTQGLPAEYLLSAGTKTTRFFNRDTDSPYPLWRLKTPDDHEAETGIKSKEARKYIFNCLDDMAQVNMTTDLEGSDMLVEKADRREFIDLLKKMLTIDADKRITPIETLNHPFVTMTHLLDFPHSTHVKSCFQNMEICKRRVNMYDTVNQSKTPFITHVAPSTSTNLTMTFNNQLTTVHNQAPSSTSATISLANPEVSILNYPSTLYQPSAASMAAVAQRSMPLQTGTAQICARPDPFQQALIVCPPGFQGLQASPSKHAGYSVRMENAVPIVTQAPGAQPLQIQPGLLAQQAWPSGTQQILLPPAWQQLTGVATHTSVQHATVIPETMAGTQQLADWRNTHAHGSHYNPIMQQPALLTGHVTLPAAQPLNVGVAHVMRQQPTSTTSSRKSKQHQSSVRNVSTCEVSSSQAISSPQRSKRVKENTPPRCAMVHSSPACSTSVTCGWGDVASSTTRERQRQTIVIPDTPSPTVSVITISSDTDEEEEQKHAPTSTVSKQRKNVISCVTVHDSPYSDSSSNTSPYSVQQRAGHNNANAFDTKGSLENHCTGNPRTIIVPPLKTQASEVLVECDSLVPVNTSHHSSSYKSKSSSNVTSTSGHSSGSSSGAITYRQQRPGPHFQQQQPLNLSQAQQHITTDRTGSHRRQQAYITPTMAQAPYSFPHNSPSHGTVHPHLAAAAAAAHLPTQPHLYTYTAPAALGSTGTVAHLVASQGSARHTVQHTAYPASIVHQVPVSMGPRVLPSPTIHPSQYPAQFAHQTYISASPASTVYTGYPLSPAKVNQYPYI
The settings on record: HIPK2; 1 μM; read-out: % control.

The target in assay [3] is T3, panel of 468 kinases (Homo sapiens, UniProt Q6P3R8).
T3 construct: purchased KINOMEscan (ScanMAX) service
T3 sequence (Q6P3R8 1-708): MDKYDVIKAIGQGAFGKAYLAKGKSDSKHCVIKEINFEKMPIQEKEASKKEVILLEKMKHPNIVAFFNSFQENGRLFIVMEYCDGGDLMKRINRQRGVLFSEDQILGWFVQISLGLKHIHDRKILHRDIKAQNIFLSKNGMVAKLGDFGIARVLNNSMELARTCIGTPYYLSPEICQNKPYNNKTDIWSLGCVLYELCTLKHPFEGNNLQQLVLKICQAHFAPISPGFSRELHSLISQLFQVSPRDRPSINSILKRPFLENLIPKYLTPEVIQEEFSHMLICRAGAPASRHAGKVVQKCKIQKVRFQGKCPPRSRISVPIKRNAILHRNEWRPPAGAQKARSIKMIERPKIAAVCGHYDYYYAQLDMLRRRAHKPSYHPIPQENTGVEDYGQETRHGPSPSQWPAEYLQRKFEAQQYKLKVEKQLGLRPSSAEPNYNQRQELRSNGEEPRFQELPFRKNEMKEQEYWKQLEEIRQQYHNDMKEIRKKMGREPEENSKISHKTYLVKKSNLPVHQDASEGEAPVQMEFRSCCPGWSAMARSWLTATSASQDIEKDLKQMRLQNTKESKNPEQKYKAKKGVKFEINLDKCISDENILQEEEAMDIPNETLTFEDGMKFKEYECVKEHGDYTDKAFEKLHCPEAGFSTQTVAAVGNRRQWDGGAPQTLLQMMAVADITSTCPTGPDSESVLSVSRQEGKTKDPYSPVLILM
As to conditions: NEK5; 1 μM; read-out: % control.

Assay [4] has as its target T4, panel of 468 kinases (Homo sapiens, UniProt Q9HAZ1).
T4 construct: purchased KINOMEscan (ScanMAX) service
As to conditions: CLK4; 1 μM; read-out: % control.

The target in assay [5] is T5, panel of 468 kinases (Homo sapiens, UniProt P35626).
T5 construct: purchased KINOMEscan (ScanMAX) service
T5 sequence (P35626 1-688): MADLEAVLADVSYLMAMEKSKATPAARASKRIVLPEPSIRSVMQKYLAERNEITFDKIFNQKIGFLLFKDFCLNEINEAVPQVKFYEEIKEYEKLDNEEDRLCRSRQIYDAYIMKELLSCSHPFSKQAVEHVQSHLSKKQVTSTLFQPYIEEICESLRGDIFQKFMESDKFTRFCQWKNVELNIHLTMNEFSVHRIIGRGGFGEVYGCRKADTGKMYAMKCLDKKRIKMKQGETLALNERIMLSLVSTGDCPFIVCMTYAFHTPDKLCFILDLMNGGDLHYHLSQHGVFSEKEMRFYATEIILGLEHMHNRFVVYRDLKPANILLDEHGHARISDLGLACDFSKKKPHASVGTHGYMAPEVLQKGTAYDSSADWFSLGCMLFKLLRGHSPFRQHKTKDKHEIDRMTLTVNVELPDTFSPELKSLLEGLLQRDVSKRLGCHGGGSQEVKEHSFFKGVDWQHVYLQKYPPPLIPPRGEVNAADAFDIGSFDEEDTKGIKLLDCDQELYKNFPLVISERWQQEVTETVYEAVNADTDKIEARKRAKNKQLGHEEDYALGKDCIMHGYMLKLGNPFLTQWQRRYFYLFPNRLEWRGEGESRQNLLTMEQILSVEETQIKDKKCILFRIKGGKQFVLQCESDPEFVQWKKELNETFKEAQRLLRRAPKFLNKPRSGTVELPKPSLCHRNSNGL
As to conditions: GRK3; 1 μM; read-out: % control.

In assay [6] the target is T6, panel of 468 kinases (Homo sapiens, UniProt P53355).
T6 construct: purchased KINOMEscan (ScanMAX) service
T6 sequence (P53355 whole entry): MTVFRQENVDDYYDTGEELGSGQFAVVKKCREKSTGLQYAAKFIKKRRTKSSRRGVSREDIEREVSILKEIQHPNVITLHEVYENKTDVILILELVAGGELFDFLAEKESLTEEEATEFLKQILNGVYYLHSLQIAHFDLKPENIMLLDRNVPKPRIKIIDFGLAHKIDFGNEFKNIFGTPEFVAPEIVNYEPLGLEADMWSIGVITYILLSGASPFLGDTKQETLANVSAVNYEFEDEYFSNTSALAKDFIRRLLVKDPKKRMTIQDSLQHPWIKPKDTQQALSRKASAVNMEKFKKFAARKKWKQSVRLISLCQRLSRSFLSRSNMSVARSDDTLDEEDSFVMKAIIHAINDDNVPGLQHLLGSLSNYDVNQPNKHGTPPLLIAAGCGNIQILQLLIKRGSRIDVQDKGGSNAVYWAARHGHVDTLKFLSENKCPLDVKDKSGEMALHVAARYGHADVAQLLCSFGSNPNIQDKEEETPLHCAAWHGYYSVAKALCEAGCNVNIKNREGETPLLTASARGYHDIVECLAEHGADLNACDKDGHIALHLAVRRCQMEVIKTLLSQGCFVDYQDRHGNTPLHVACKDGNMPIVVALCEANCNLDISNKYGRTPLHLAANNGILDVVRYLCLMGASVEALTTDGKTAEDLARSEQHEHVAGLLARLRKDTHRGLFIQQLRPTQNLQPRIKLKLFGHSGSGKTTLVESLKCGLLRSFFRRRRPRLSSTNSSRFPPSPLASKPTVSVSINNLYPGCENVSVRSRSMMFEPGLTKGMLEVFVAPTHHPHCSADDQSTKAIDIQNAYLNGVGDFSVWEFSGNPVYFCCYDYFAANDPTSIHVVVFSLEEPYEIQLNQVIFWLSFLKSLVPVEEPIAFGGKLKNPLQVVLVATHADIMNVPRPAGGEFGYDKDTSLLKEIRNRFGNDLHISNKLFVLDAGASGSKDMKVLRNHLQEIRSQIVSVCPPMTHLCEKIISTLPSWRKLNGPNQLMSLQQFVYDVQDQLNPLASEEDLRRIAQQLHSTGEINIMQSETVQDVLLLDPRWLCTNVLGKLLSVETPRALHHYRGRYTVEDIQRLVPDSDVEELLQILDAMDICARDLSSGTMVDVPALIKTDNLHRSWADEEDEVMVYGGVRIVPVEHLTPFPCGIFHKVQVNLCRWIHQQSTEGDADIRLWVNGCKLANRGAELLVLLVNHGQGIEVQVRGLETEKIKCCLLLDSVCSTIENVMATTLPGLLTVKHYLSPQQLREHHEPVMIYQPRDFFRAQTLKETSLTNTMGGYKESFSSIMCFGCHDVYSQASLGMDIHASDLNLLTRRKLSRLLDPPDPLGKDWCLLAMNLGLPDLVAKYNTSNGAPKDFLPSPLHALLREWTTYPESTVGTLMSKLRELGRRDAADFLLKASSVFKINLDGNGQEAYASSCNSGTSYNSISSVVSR
The settings on record: DAPK1; 1 μM; read-out: % control.

The target in assay [7] is T7, panel of 468 kinases (Homo sapiens, UniProt P51955).
T7 construct: purchased KINOMEscan (ScanMAX) service
T7 sequence (P51955 1-445): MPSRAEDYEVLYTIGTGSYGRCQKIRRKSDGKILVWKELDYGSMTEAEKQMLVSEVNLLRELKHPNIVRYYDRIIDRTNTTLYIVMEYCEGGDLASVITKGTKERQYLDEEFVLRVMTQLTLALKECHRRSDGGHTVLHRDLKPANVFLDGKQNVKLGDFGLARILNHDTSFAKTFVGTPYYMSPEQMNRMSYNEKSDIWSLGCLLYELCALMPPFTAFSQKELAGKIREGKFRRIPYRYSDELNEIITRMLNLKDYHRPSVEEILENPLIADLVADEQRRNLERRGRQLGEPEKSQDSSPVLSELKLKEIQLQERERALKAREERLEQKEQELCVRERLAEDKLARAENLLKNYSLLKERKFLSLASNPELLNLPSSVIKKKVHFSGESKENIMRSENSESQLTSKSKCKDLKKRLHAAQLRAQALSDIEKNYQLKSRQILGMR
The settings on record: NEK2; 1 μM; read-out: % control.

T4 sequence (Q9HAZ1 whole entry): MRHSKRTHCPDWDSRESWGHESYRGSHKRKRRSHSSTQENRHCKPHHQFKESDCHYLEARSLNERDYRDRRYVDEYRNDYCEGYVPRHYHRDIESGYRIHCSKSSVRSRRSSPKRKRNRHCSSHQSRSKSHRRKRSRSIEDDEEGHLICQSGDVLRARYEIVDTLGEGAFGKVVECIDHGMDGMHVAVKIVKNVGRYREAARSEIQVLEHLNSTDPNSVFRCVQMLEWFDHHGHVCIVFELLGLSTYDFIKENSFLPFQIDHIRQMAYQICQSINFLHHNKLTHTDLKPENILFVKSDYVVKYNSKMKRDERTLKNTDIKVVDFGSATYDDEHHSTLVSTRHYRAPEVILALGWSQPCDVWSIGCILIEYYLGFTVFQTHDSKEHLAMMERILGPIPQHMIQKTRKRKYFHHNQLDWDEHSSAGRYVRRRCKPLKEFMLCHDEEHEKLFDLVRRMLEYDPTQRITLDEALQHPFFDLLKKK
T1 sequence (O95747 whole entry): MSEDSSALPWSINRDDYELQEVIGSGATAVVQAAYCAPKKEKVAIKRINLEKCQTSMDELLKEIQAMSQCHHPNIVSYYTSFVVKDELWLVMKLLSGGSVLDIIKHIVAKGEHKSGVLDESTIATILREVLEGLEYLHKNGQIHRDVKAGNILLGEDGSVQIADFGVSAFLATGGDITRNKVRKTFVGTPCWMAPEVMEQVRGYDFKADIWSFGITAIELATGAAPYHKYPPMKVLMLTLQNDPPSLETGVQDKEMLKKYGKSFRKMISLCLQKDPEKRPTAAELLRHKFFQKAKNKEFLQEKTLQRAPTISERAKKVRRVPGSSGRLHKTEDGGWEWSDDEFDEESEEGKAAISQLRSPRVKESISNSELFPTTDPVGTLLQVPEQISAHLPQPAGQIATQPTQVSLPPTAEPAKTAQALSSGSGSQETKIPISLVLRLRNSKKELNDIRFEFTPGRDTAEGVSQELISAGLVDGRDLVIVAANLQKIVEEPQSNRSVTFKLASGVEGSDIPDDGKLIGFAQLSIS

Regarding `CNc1nc(Nc2ccc(S(=O)(=O)N3CCC(N4CCOCC4)CC3)cc2OC)nc2[nH]cc(Cl)c12` [Compound 12, 5-chloro-N2-(2-methoxy-4-((4-morpholinopiperidin-1-yl)sulfonyl)phenyl)-N4-methyl-7H-pyrrolo[2,3-d]pyrimidine-2,4-diamine], the remaining binding at 1 µM amounted to 31% at panel of 468 kinases [1]; 100% at panel of 468 kinases [2]; 100% at panel of 468 kinases [3]; 0.75% on panel of 468 kinases [4]; 100% at panel of 468 kinases [5]; 43% at panel of 468 kinases [6]. Moreover, the remaining binding at 1 µM at panel of 468 kinases [7] was 100%.
In the case of `CNc1nc(Nc2ccc(C(=O)N3CCC(N4CCOCC4)CC3)c3c2OCO3)nc2[nH]cc(Cl)c12` [Compound 75, (7-((5-chloro-4-(methylamino)-7H-pyrrolo[2,3-d]pyrimidin-2-yl)amino)benzo[d][1,3]dioxol-4-yl)(4-morpholinopiperidin-1-yl)methanone], the remaining binding at 1 µM came out at 24% on panel of 468 kinases [1]; 66% at panel of 468 kinases [2]; 97% at panel of 468 kinases [3]; 0.7% on panel of 468 kinases [4]; 78% at panel of 468 kinases [5]; 14% at panel of 468 kinases [6]. Also, at panel of 468 kinases [7], the remaining binding at 1 µM is 100%.
On to `CNc1nc(Nc2ccc(P3(=O)CCN(C4CCOCC4)CC3)cc2OC)nc2[nH]cc(Cl)c12` [Compound 77, 4-(4-((5-chloro-4-(methylamino)-7H-pyrrolo[2,3-d]pyrimidin-2-yl)amino)-3-methoxyphenyl)-1-(tetrahydro-2H-pyran-4-yl)-1,4-azaphosphinane 4-oxide], for which the remaining binding at 1 µM on panel of 468 kinases [1] was 10%; on panel of 468 kinases [2], 95%; on panel of 468 kinases [3], 98%; on panel of 468 kinases [4], 1.2%; on panel of 468 kinases [5] it was 82%; at panel of 468 kinases [6], 8.3%. On panel of 468 kinases [7], the remaining binding at 1 µM was 100%.
